Test results from patent EP4212633A1 (priority 2022, dated 2023).

Experiments:
SARS-CoV-2 pseudoknot = assay: ligand observed fluorescence titrations (binding to the pseudoknot); conditions: for Kd: binding to the pseudoknot structure, Figure 3
pseudoknot RNA [1] = assay: 1H,15N-HSQC NMR experiments (chemical shift perturbation, binding site mapping); design: species or system SARS-CoV-2
pseudoknot RNA [2] = assay: inline probing experiments; type: binding, SARS-CoV-2
SARS-CoV-2 = conditions: Wang et al., 2020, Zhang et al.; cited from earlier work
[3] = at higher concentrations; Borba et al., 2020; cited from earlier work
COVID-19 = conditions: Cao et al., 2020; cited from earlier work

COc1ccc(-c2cc(-c3ccncc3)nc(N3C[C@H](N)C[C@H](N)C3)n2)cc1 [D01+DAP, (3R,5S)-1-(4-(4-methoxyphenyl)-6-(pyridin-4-yl)pyrimidin-2-yl)piperidine-3,5-diamine]
Kd (SARS-CoV-2 pseudoknot): 0.3 µM | binding affinity to the SARS-CoV-2 pseudoknot (ranking among evaluated derivatives) (SARS-CoV-2 pseudoknot; ligand observed fluorescence titrations, Figures 3 and 14): highest binding affinity | binding site from chemical shift perturbation and decreasing signal intensity (pseudoknot RNA [1]; addition of ligand to pseudoknot RNA, Figure 4A): confirmed one of the binding hot spots (HS2) as a binding site | interaction in inline probing (pseudoknot RNA [2]; Figure 4B): interaction of D01+DAP and the pseudoknot RNA in the predicted HS1 and the loop region (L2)

NC(=O)c1nc(F)cnc1O [favipavir]
antiviral activity (SARS-CoV-2): two- or three-digit micromolar range

NC(=O)c1ncn([C@@H]2O[C@H](CO)[C@@H](O)[C@H]2O)n1 [Ribavirin]
antiviral activity (SARS-CoV-2): two- or three-digit micromolar range

CCN(CC)CCCC(C)Nc1ccnc2cc(Cl)ccc12 (stereo not drawn) [chloroquine]
side-effects [3]: heart arrhythmia

Cc1ccc(C)n1CCC(=O)Nc1ccc2nc[nH]c(=O)c2c1 [D05, 3-(2,5-dimethyl-1H-pyrrol-1-yl)-N-(4-oxo-3,4-dihydroquinazolin-6-yl)propanamide]
Kd (SARS-CoV-2 pseudoknot): 140 µM | interactions with the RNA in NMR experiments (pseudoknot RNA [1]): showed interactions with the RNA | interactions with the RNA in in-line probing experiments (pseudoknot RNA [2]): showed interactions with the RNA

Cc1cccc(C)c1OCC(=O)N[C@@H](Cc1ccccc1)[C@@H](O)C[C@H](Cc1ccccc1)NC(=O)[C@H](C(C)C)N1CCCNC1=O [lopinavir]
effect in clinical tests (COVID-19): no effect

CC(C)(C)OC(=O)Nc1cccn([C@@H](CC2CC2)C(=O)N[C@@H](C[C@@H]2CCNC2=O)C(=O)C(=O)NCc2ccccc2)c1=O [α-ketoamide-Inhibitor 13b]
antiviral activity (SARS-CoV-2): low micromolar range
